Measured values as given in patent US20230098332A1, “HETEROCYCLIC DERIVATIVES AS TRMP8 ANTAGONISTS” (Givaudan SA, priority 2020, published 2023).

Assays:
[1] = system: trained group of panelists; test: Sensory studies in model dentifrice (trained panelists, cooling in the mouth); type: in vivo, human; settings: 100 ppm in model unflavored dentifrice, brushing with 1 g for 60 seconds; for Cooling after 1 hour / Max. cooling: averaged panel score 0-10
Protocol: The compounds listed in Table 3 were dissolved at a concentration of 1 wt-% in propylene glycol. These solutions were then dispersed in appropriate quantities to obtain the desired final concentration of 100 ppm (parts per million) of the test compound into a model, unflavored dentifrice, the formula of which is given below (ingredients obtained from the suppliers respectively indicated in parenthesis).
A trained group of panelists evaluated the dentifrice containing a compound of formula (I), by brushing their teeth with 1 g of the dentifrice using a toothbrush for 60 seconds, followed by spitting, without rinsing the mouth afterwards for the duration of the evaluation. Panelists evaluated and recorded the cooling performance as well as other sensorial and organoleptic attributes at different timepoints over a period of two hours. Cooling performance was rated on a scale from 0 to 10 with 0 being no effect and 10 being freezing. Scores were averaged for all panelists and the cooling intensity qualified as “N” for “none” (score of 0), “L” for “low” (score above 0, up to 1), “M” for “medium” (score above 1, up to 4), “S” for “strong” (score above 4, up to 8) and “E” for “extreme” (score above 8), which are summarized below in Table 3.

[2] = system: trained group of panelists; test: Sensory studies in aqueous solution (trained panelists, cooling in the mouth); type: in vivo, human; settings: 40 ppm in aqueous solution, 20 mL swilled in the mouth for 60 seconds; for Cooling after 1 hour / Max. cooling: averaged panel score 0-10
Protocol: The compounds as listed below in Table 2 were dissolved at a concentration of 1 wt-% in propylene glycol. These solutions were then dispensed in appropriate quantities into deionized water containing 0.5 wt-% Poloxamer 407 (which is a hydrophilic non-ionic surfactant, e.g., commercially available from SigmaAldrich) and 0.25 wt-% Cremaphor® RH40 (obtained from BASF) as solubilizer, to obtain the desired final concentration of 40 ppm (parts per million) of the respective compound.
A trained group of panelists evaluated the aqueous solutions containing test compound by swilling 20 mL of the solution in the mouth for 60 seconds, followed by spitting, without rinsing the mouth afterwards for the duration of the evaluation. Panelists evaluated and recorded the cooling performance as well as other sensorial and organoleptic attributes at different timepoints over a period of two hours. Cooling performance was rated on a scale from 0 to 10 with 0 being no effect and 10 being freezing. Scores were averaged for all panelists and the cooling intensity qualified as “N” for “none” (score of 0), “L” for “low” (score above 0, up to 1), “M” for “medium” (score above 1, up to 4), “S” for “strong” (score above 4, up to 8) and “E” for “extreme” (score above 8), which are provided in Table 2.

hTRPM8 = molecular target: T1, hTRPM8 (Homo sapiens, UniProt Q7Z2W7); test: Assay on TRPM8 modulators: calcium imaging (Fluo-4, Flexstation) in HEK293 cell line stably expressing hTRPM8; type: cell-based; settings: TRPM8 agonist activity, calcium influx, HEK293 stably expressing hTRPM8, sigmoidal dose-response fit
T1 construct: expressed in transfected cells
Procedure, shortened: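 Calcium influx monitored by Fluo-4 (2.7 μM with […] probenecid, 1 h 37 °C loading) in HEK293 cells stably expressing hTRPM8, in HEPES buffer pH 7.4 with 2 mM CaCl2. Fluorescence read 15 s before and 105 s after adding serial compound dilutions. Maximal activation relative to solvent and 31.6 μM menthol; EC50 from sigmoidal fit.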

T1 sequence (Q7Z2W7 whole entry): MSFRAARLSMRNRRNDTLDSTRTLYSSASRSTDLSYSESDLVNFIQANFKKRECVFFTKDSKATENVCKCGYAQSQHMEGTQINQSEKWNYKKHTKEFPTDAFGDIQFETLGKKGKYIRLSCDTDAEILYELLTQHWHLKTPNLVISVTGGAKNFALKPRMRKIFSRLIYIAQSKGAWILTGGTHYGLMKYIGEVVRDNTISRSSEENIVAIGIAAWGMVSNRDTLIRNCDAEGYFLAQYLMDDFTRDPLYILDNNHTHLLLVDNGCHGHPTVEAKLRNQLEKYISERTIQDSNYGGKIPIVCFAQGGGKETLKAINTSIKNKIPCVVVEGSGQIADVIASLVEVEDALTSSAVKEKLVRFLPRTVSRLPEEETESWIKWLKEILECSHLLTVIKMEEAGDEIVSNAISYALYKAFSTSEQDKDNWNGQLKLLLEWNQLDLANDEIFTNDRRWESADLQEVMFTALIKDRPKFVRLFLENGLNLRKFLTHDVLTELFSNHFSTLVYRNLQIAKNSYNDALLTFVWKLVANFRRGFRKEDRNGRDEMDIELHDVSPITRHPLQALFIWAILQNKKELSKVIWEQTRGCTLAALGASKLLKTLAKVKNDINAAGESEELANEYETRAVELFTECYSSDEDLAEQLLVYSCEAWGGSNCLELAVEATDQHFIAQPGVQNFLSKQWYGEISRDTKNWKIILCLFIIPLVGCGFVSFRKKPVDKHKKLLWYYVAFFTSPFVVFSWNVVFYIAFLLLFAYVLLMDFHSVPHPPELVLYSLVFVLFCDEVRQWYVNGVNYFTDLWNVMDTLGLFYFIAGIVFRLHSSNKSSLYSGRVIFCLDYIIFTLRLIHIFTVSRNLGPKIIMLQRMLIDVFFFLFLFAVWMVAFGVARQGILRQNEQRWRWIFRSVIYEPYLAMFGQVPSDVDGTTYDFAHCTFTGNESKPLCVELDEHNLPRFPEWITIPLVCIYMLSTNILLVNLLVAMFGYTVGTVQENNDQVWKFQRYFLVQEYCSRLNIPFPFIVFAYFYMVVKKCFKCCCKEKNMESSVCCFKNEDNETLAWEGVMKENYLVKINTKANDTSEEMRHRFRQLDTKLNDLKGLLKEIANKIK

SMILES	EC50 (hTRPM8) [µM]	Time of max. cooling [1] [min]	Cooling after 1 hour [1]	Max. cooling [1]	Time of max. cooling [2] [min]	Cooling after 1 hour [2]	Max. cooling [2]
Cc1cc(C)c(CCCN2CCOCC2)c(Oc2ccccc2C#N)c1 [compound 125, 2-(3,5-dimethyl-2-(3-morpholinopropyl)phenoxy)benzonitrile]	< 0.05	30	M (“M” for “medium” (score above 1, up to 4))	M (“M” for “medium” (score above 1, up to 4))	10	M (“M” for “medium” (score above 1, up to 4))	M (“M” for “medium” (score above 1, up to 4))
Cc1ccc(OCCN2CCN(C)CC2)c(Cc2ccccc2C#N)c1.Cl.Cl [compound 130, 2-(5-methyl-2-(2-(4-methylpiperazin-1-yl)ethoxy)benzyl)benzonitrile dihydrochloride]		30	M (“M” for “medium” (score above 1, up to 4))	M (“M” for “medium” (score above 1, up to 4))	30	S (“S” for “strong” (score above 4, up to 8))	S (“S” for “strong” (score above 4, up to 8))
Cc1ccc(N(C)CCN2CCN(C)CC2)c(Cc2ccccc2)c1 [compound 137, 2-benzyl-N,4-dimethyl-N-(2-(4-methylpiperazin-1-yl)ethyl)aniline]	0.05 to 0.3	10	L (“L” for “low” (score above 0, up to 1))	M (“M” for “medium” (score above 1, up to 4))	10	M (“M” for “medium” (score above 1, up to 4))	S (“S” for “strong” (score above 4, up to 8))
Cc1cc(C)c(OCCN2CCOCC2)c(Cc2c(F)cccc2F)c1 [compound 149, 4-(2-(2-(2,6-difluorobenzyl)-4,6-dimethylphenoxy)ethyl)morpholine]	0.05 to 0.3	30	M (“M” for “medium” (score above 1, up to 4))	M (“M” for “medium” (score above 1, up to 4))	20	M (“M” for “medium” (score above 1, up to 4))	S (“S” for “strong” (score above 4, up to 8))
Cc1cc(C)c(OCCN2CCOCC2)c(Cc2ccccc2F)c1 [compound 153, 4-(2-(2-(2-fluorobenzyl)-4,6-dimethylphenoxy)ethyl)morpholine]	0.05 to 0.3	5	L (“L” for “low” (score above 0, up to 1))	M (“M” for “medium” (score above 1, up to 4))	20	M (“M” for “medium” (score above 1, up to 4))	M (“M” for “medium” (score above 1, up to 4))

The next lines start with results.

EC50 (hTRPM8) [µM]	SMILES	Time of max. cooling [1] [min]	Cooling after 1 hour [1]	Max. cooling [1]	Time of max. cooling [2] [min]	Cooling after 1 hour [2]	Max. cooling [2]
< 0.05	Cc1cc(C)c(OCCN2CCN(C)CC2)c(Cc2ccccc2C#N)c1.Cl [compound 118, 2-(3,5-dimethyl-2-(2-(4-methylpiperazin-1-yl)ethoxy)benzyl)benzonitrile hydrochloride]	30	M (“M” for “medium” (score above 1, up to 4))	M (“M” for “medium” (score above 1, up to 4))	20	S (“S” for “strong” (score above 4, up to 8))	S (“S” for “strong” (score above 4, up to 8))
< 0.05	Cc1cc(C)c(OCCN2CCOCC2)c(Cc2ccccc2C#N)c1 [compound 122, 2-(3,5-dimethyl-2-(2-morpholinoethoxy)benzyl)benzonitrile]	10	M (“M” for “medium” (score above 1, up to 4))	S (“S” for “strong” (score above 4, up to 8))	10	M (“M” for “medium” (score above 1, up to 4))	S (“S” for “strong” (score above 4, up to 8))
